Patent US7973147B2, “K04-0144 substance and a process for production thereof” (The Kitasato Institute, priority 2006, dated 2011)
In brackets after ≈: the same amount, converted by molar mass. Entries after “also recorded” stand apart in the source; their conditions may differ. Read-outs that look alike come from different tables or passages of the source.

What was measured:
[1] = test system: MRSA (Clinical isolate, the Kitasato Hospital, Japan); assay: Enhancing action of K04-0144D substance on antibiotic activities, broth microdilution method; format: cell-based, methicillin-resistant Staphylococcus aureus; conditions: for MIC: Staphylococcus aureus, MRSA
[2] = Solubility in solvent; format: physicochemical
[3] = test system: MRSA 92-1191; assay: MIC, agar plate dilution method; format: cell-based, methicillin-resistant Staphylococcus aureus; conditions: Staphylococcus aureus; MRSA 92-1191; 37° C., 20 hours; read-out: MIC
Procedure: (§1) Assay of minimum inhibitory concentration (MIC) was performed according to the agar plate dilution method (Method of Japan Society of Chemotherapy, CHEMOTHERAPY 29, 76-79, 1981).
(§2) Test organisms used were 27 types of microorganisms including clinical isolates of methicillin-resistant Staphylococcus aureus. Each test organism was cultured in Mueller-Hinton broth (2.1% w/v) (DIFCO) at 37° C. for 20 hours, and the cultured cells were suspended to about 10^6 cell counts/ml in the same medium, then was used as the microbial suspension for inoculation. The prepared microbial suspension was smeared by using the microplanter on MHA medium (Mueller-Hinton broth 2.1% (w/v) and agar 1.5%) containing K04-0144A substance, K04-0144B substance or K04-0144C substance, each of which was subjected to two-fold stepwise dilution from 128 μg/ml. After culturing at 37° C. for 20 hours, MIC was determined by macroscopically confirming the growth of microorganisms. Vancomycin, arbekacin and linezolid were used as a comparative control.

[4] = test system: MRSA 70; assay: MIC, agar plate dilution method; format: cell-based, methicillin-resistant Staphylococcus aureus; conditions: Staphylococcus aureus
Procedure: as §1, §2

[5] = test system: MRSA N315 IR94 HR-1; assay: MIC, agar plate dilution method; format: cell-based, methicillin-resistant Staphylococcus aureus; conditions: Staphylococcus aureus, 20 h
Procedure: as §1, §2

[6] = test system: MRSA N315 IR94; assay: MIC, agar plate dilution method; format: cell-based, methicillin-resistant Staphylococcus aureus; conditions: Staphylococcus aureus, 20 h
Procedure: as §1, §2

[7] = test system: K. pneumoniae NCTN9632; assay: MIC, agar plate dilution method; format: cell-based; conditions: Klebsiella pneumoniae; K. pneumoniae NCTN9632; 37° C., 20 hours; read-out: MIC
Procedure: as §1, §2

[8] = test system: M. luteus ATCC9341; assay: MIC, agar plate dilution method; format: cell-based; conditions: Micrococcus luteus; M. luteus ATCC9341; 37° C., 20 hours; read-out: MIC
Procedure: as §1, §2

[9] = test system: S. marcescens IFO12648; assay: MIC, agar plate dilution method; format: cell-based; conditions: Serratia marcescens; S. marcescens IFO12648; 37° C., 20 hours; read-out: MIC
Procedure: as §1, §2

[10] = test system: P. mirabilis IFO3849; assay: MIC, agar plate dilution method; format: cell-based; conditions: Proteus mirabilis; P. mirabilis IFO3849; 37° C., 20 hours; read-out: MIC
Procedure: as §1, §2

[11] = test system: E. facecalis NTCT12201(VanA); assay: MIC, agar plate dilution method; format: cell-based; conditions: E. facecalis NTCT12201(VanA); 37° C., 20 hours; read-out: MIC
Procedure: as §1, §2

[12] = test system: E. cloacae IFO13535; assay: MIC, agar plate dilution method; format: cell-based; conditions: Enterobacter cloacae; E. cloacae IFO13535; 37° C., 20 hours; read-out: MIC
Procedure: as §1, §2

[13] = test system: P. vulgaris OX-19; assay: MIC, agar plate dilution method; format: cell-based; conditions: Proteus vulgaris, OX19; P. vulgaris OX-19; 37° C., 20 hours; read-out: MIC
Procedure: as §1, §2

[14] = test system: E. faecalis ATCC21212; assay: MIC, agar plate dilution method; format: cell-based; conditions: Enterococcus faecalis; E. faecalis ATCC21212; 37° C., 20 hours; read-out: MIC
Procedure: as §1, §2

[15] = test system: S. aureus ISP447; assay: MIC, agar plate dilution method; format: cell-based; conditions: Staphylococcus aureus; S. aureus ISP447; 37° C., 20 hours; read-out: MIC
Procedure: as §1, §2

[16] = test system: P. aeruginosa E-2; assay: MIC, agar plate dilution method; format: cell-based; conditions: Pseudomonas aeruginosa, E2; P. aeruginosa E-2; 37° C., 20 hours; read-out: MIC
Procedure: as §1, §2

[17] = test system: E. aerogenes NCTC10006; assay: MIC, agar plate dilution method; format: cell-based; conditions: Klebsiella aerogenes; E. aerogenes NCTC10006; 37° C., 20 hours; read-out: MIC
Procedure: as §1, §2

[18] = test system: S. epidermidis IFO12648; assay: MIC, agar plate dilution method; format: cell-based; conditions: Staphylococcus epidermidis; S. epidermidis IFO12648; 37° C., 20 hours; read-out: MIC
Procedure: as §1, §2

[19] = test system: S. aureus ISP217; assay: MIC, agar plate dilution method; format: cell-based; conditions: Staphylococcus aureus; S. aureus ISP217; 37° C., 20 hours; read-out: MIC
Procedure: as §1, §2

[20] = test system: S. aureus Smith; assay: MIC, agar plate dilution method; format: cell-based; conditions: Staphylococcus aureus; S. aureus Smith; 37° C., 20 hours; read-out: MIC
Procedure: as §1, §2

[21] = test system: C. freundii ATCC8090; assay: MIC, agar plate dilution method; format: cell-based; conditions: Citrobacter freundii; C. freundii ATCC8090; 37° C., 20 hours; read-out: MIC
Procedure: as §1, §2

[22] = test system: E. coli NIHJ JC-2; assay: MIC, agar plate dilution method; format: cell-based; conditions: Escherichia coli, NIHJJC2; E. coli NIHJ JC-2; 37° C., 20 hours; read-out: MIC
Procedure: as §1, §2

[23] = test system: P. aeruginosa 46001; assay: MIC, agar plate dilution method; format: cell-based; conditions: Pseudomonas aeruginosa; P. aeruginosa 46001; 37° C., 20 hours; read-out: MIC
Procedure: as §1, §2

[24] = test system: S. aureus FDA209P; assay: MIC, agar plate dilution method; format: cell-based; conditions: Staphylococcus aureus; S. aureus FDA209P; 37° C., 20 hours; read-out: MIC
Procedure: as §1, §2

[25] = test system: M. morganii IID Kono; assay: MIC, agar plate dilution method; format: cell-based; conditions: Morganella morganii; M. morganii IID Kono; 37° C., 20 hours; read-out: MIC
Procedure: as §1, §2

[26] = test system: A. calcoaceticus IFO2552; assay: MIC, agar plate dilution method; format: cell-based; conditions: Acinetobacter calcoaceticus; A. calcoaceticus IFO2552; 37° C., 20 hours; read-out: MIC
Procedure: as §1, §2

[27] = test system: S. aureus 8325(pMS97); assay: MIC, agar plate dilution method; format: cell-based; conditions: Staphylococcus aureus, 20 h
Procedure: as §1, §2

[28] = test system: S. aureus 8325(pEP2104); assay: MIC, agar plate dilution method; format: cell-based; conditions: Staphylococcus aureus, 20 h
Procedure: as §1, §2

[29] = test system: E. faecium NTCT12203(VanA); assay: MIC, agar plate dilution method; format: cell-based; conditions: Enterococcus faecium; E. faecium NTCT12203(VanA); 37° C., 20 hours; read-out: MIC
Procedure: as §1, §2

[30] = test system: methicillin-resistant Staphylococcus aureus (MRSA) K24 strain; assay: Enhancing action on activity of imipenem by paper disc method; format: cell-based
Procedure: Clinical isolate of methicillin-resistant Staphylococcus aureus (MRSA) K24 strain was used as a test microorganism. After the strain of MRSA K24 was cultured in Mueller-Hinton broth (2.1% w/v) (DIFCO) at 37° C. for 20 hours, the strain was suspended to the concentration corresponding to 0.5 Mc FARAND (about 10^8 CFU/ml) in the same medium. The suspension was smeared on MHA medium (Mueller-Hinton broth 2.1% (w/v), agar 1.5%) and a medium of the same composition containing imipenem (Tienem for Intramuscular Injection, 0.5 g, Banyu Pharmaceutical Co., Ltd., Japan) with a concentration without affecting the growth of test microorganisms, i.e. final concentration of 10 μg/ml. Smearing was performed according to the method of National Committee for Laboratory Standard, the U.S. (NCCLS), by using sterilized cotton-tipped swab (Kawamoto Sangyo Co., Ltd., Japan).

Row | SMILES | MIC [3] [µg/mL] | MIC [5] [µg/mL] | MIC [6] [µg/mL] | MIC [7] [µg/mL] | MIC [8] [µg/mL] | MIC [9] [µg/mL] | MIC [10] [µg/mL] | MIC [11] [µg/mL] | MIC [12] [µg/mL] | MIC [13] [µg/mL] | MIC [14] [µg/mL] | MIC [15] [µg/mL] | MIC [16] [µg/mL] | MIC [17] [µg/mL] | MIC [18] [µg/mL] | MIC [19] [µg/mL] | MIC [20] [µg/mL] | MIC [21] [µg/mL] | MIC [22] [µg/mL] | MIC [23] [µg/mL] | other results
1 | C[C@@H](O)[C@H]1C(=O)N2C(C(=O)O)=C(SCCN=CN)C[C@H]12 [Imipenem, imipenem] | – | – | – | – | – | – | – | – | – | – | – | – | – | – | – | – | – | – | – | – | Ratio (−/+K04-0144D) ([1]; MIC alone / MIC with K04-0144D substance 16 μg/ml): 1024; MIC ([1]; antibiotic alone, without K04-0144D substance, read-out: Minimum Inhibitory Concentration (−)): 32 µg/mL; MIC ([1]; combined use with K04-0144D substance 16 μg/ml, read-out: Minimum Inhibitory Concentration (+)): 0.03 µg/mL
2 | C=C(C/C=C(\C)CCC=C(C)C)CCC(C)(C)/C=C/CC/C(C)=C\COC(COP(=O)(O)OC1OC(C(N)=O)C(C)(O)C(OC(N)=O)C1OC1OC(CO)C(OC2OC(C)C(OC3OC(C(=O)O)C(O)C(O)C3O)C(O)C2NC(C)=O)C(O)C1NC(C)=O)C(=O)O (stereo not shown) [K04-0144B] | 1 (≈ 0.755 µM) | 0.125 (≈ 0.0943 µM) | 0.125 (≈ 0.0943 µM) | > 16 | > 16 | > 16 | 16 (≈ 12.1 µM) | 2 (≈ 1.51 µM) | > 16 | 4 (≈ 3.02 µM) | 2 (≈ 1.51 µM) | 0.5 (≈ 0.377 µM) | > 16 | > 16 | 8 (≈ 6.04 µM) | 0.5 (≈ 0.377 µM) | 2 (≈ 1.51 µM) | > 16 | > 16 | > 16 | Solubility in solvent ([2]; listed as K04-0144B Substance): Soluble in water, methanol and dimethyl sulfoxide; also recorded: Insoluble in acetone, chloroform and n-hexane; MIC ([4]; MRSA, 20 h): 0.125 µg/mL (≈ 0.0943 µM); MIC [24]: 2 µg/mL (≈ 1.51 µM); MIC [25]: > 16 µg/mL; MIC [26]: 8 µg/mL (≈ 6.04 µM); MIC [27]: 1 µg/mL (≈ 0.755 µM); MIC [28]: 0.06 µg/mL (≈ 0.0453 µM); MIC [29]: > 16 µg/mL
3 | C=C/C(C)=C/CC1C2(C)CCCC(C)(C)C2CC(O)C1(O)CSCC(NC(C)=O)C(=O)O (stereo not shown) [K04-0144D substance] | – | – | – | – | – | – | – | – | – | – | – | – | – | – | – | – | – | – | – | – | Solubility in solvent [2]: Soluble in methanol and water acetonitrile; also recorded: Insoluble in chloroform and hexane ethyl acetate; Diameter of inhibition ring ([30]; 1 μg/6 mm disc, Imipenem (10 μg/ml) (+)): 15 mm; Diameter of inhibition ring ([30]; 1 μg/6 mm disc, Imipenem (10 μg/ml) (−)): did not exhibit an inhibitory ring; Diameter of inhibition ring ([30]; 10 μg/6 mm disc, Imipenem (10 μg/ml) (+)): 26 mm; Diameter of inhibition ring ([30]; 10 μg/6 mm disc, Imipenem (10 μg/ml) (−)): 14 mm
4 | C=C(C/C=C(\C)CCC=C(C)C)CCC(C)(C)/C=C/CC/C(C)=C\COC(COP(=O)(O)OC1OC(C(N)=O)C(C)(O)C(OC(N)=O)C1OC1OC(CO)C(OC2OC(C)C(OC3OC(C(N)=O)C(O)C(O)C3O)C(O)C2NC(C)=O)C(O)C1NC(C)=O)C(=O)O (stereo not shown) [K04-0144C] | 0.5 (≈ 0.378 µM) | ≤ 0.25 | ≤ 0.25 | 8 (≈ 6.04 µM) | > 128 | 32 (≈ 24.2 µM) | 8 (≈ 6.04 µM) | 0.5 (≈ 0.378 µM) | 32 (≈ 24.2 µM) | 4 (≈ 3.02 µM) | 0.5 (≈ 0.378 µM) | ≤ 0.25 | 32 (≈ 24.2 µM) | 32 (≈ 24.2 µM) | 1 (≈ 0.755 µM) | ≤ 0.25 | 1 (≈ 0.755 µM) | 64 (≈ 48.3 µM) | 8 (≈ 6.04 µM) | 32 (≈ 24.2 µM) | Solubility in solvent ([2]; listed as K04-0144C substance): Soluble in water, methanol and dimethyl sulfoxide; also recorded: Insoluble in acetone, chloroform and n-hexane; MIC ([4]; MRSA 70, 37° C., 20 hours, read-out: MIC): ≤ 0.25 µg/mL; MIC [24]: 1 µg/mL (≈ 0.755 µM); MIC [25]: 32 µg/mL (≈ 24.2 µM); MIC [26]: 8 µg/mL (≈ 6.04 µM); MIC [27]: 0.5 µg/mL (≈ 0.378 µM); MIC [28]: 0.5 µg/mL (≈ 0.378 µM); MIC [29]: 64 µg/mL (≈ 48.3 µM)
